# Test results reported in ChEMBL document CHEMBL1135808, “A new type of mixed anhydride and its applications to the synthesis of 7-substituted 8-chloro-5,5-dioxoimidazo[1,2-b][1,4,2]benzodithiazines with in vitro antitumor activity” (2002).
# What was measured:
# MDA-MB-231 [1] = assay: In vitro growth inhibition against breast cancer MDA-MB-231/ATCC cell line was reported.; type: functional; conditions: Homo sapiens
# 786-0 = assay: In vitro total growth inhibition against renal cancer […] cell lines was reported.; type: functional; conditions: Homo sapiens, read-out: Log TGI (converted)
# NCI-H322M [2] = assay: In vitro growth inhibition against non-small-cell lung cancer […] cell line was reported.; type: functional; conditions: Homo sapiens
# SNB-75 = assay: In vitro total growth inhibition against CNS cancer SNB-75 cell lines was reported.; type: functional; conditions: Homo sapiens, read-out: Log TGI (converted)
# NCI-H226 [3] = assay: In vitro growth inhibition against non-small-cell lung cancer NCI-H226 cell line was reported.; type: functional; conditions: Homo sapiens
# DU-145 [4] = assay: In vitro growth inhibition against prostate cancer […] cell line was reported.; type: functional; conditions: Homo sapiens
# OVCAR-3 [5] = assay: In vitro growth inhibition against ovarian cancer OVCAR-3 cell line was reported.; type: functional; conditions: Homo sapiens
# OVCAR-4 = assay: In vitro growth inhibition against ovarian cancer OVCAR-4 cell line was reported.; type: functional; conditions: Homo sapiens
# M14 = assay: Log of molar concentration leading to 50% cell death against melanoma M14 cell line was reported; type: functional; conditions: Homo sapiens, read-out: Log LC50 (the source's name) (converted)
# U-251 = assay: In vitro growth inhibition against CNS cancer U251 cell line was reported.; type: functional; conditions: Homo sapiens
# RPMI-8226 [6] = assay: In vitro growth inhibition against leukemia […] cell line was reported.; type: functional; conditions: Homo sapiens
# NCI-H46 = assay: In vitro total growth inhibition against non-small-cell lung cancer […] cell lines was reported.; type: functional; conditions: Homo sapiens, read-out: Log TGI (converted)
# HL-60 [7] = assay: Log of molar concentration leading to 50% cell death against leukemia HL-60(TB) cell line was reported; type: functional; conditions: Homo sapiens, read-out: Log LC50 (the source's name) (converted)
# SNB-19 = assay: In vitro total growth inhibition against CNS cancer SNB-19 cell lines was reported.; type: functional; conditions: Homo sapiens, read-out: Log TGI (converted)
# HOP-62 = assay: Log of molar concentration leading to 50% cell death against non-small-cell lung cancer HOP-62 cell line was reported; type: functional; conditions: Homo sapiens, read-out: Log LC50 (the source's name) (converted)
# T47D [8] = assay: In vitro growth inhibition against breast cancer […] cell line was reported.; type: functional; conditions: Homo sapiens
# CCRF-CEM [9] = assay: In vitro total growth inhibition against leukemia CCRF cell lines was reported.; type: functional; conditions: Homo sapiens, read-out: Log TGI (converted)
# SW-620 [10] = assay: In vitro total growth inhibition against colon cancer SW-620 cell lines was reported.; type: functional; conditions: Homo sapiens, read-out: Log TGI (converted)
# IGROV-1 = assay: In vitro total growth inhibition against ovarian cancer IGROV1 cell lines was reported.; type: functional; conditions: Homo sapiens, read-out: Log TGI (converted)
# RXF 393 = assay: In vitro total growth inhibition against renal cancer RXF 393 cell lines was reported.; type: functional; conditions: Homo sapiens, read-out: Log TGI (converted)
# UACC-62 [11] = assay: Log of molar concentration leading to 50% cell death against melanoma UACC-62 cell line was reported; type: functional; conditions: Homo sapiens, read-out: Log LC50 (the source's name) (converted)
# NCI-H522 [12] = assay: In vitro growth inhibition against non-small-cell lung cancer […] cell line was reported.; type: functional; conditions: Homo sapiens
# SK-OV-3 = assay: In vitro growth inhibition against ovarian cancer SK-OV-3 cell line was reported.; type: functional; conditions: Homo sapiens
# SK-MEL-28 [13] = assay: In vitro total growth inhibition against melanoma SK-MEL-28 cell lines was reported.; type: functional; conditions: Homo sapiens, read-out: Log TGI (converted)
# OVCAR-5 = assay: In vitro growth inhibition against ovarian cancer OVCAR-5 cell line was reported.; type: functional; conditions: Homo sapiens
# DU-145 [14] = assay: In vitro total growth inhibition against prostate cancer […] cell lines was reported.; type: functional; conditions: Homo sapiens, read-out: Log TGI (converted)
# A549 = assay: In vitro growth inhibition against non-small-cell lung cancer A 549/ATCC cell line was reported.; type: functional; conditions: Homo sapiens
# MDA-MB-231 [15] = assay: In vitro total growth inhibition against breast cancer MDA-MB-231/ATCC cell lines was reported.; type: functional; conditions: Homo sapiens, read-out: Log TGI (converted)
# SK-MEL-28 [16] = assay: Log of molar concentration leading to 50% cell death against melanoma SK-MEL-28 cell line was reported; type: functional; conditions: Homo sapiens, read-out: Log LC50 (the source's name) (converted)
# RPMI-8226 [17] = assay: Log of molar concentration leading to 50% cell death against leukemia […] cell line was reported; type: functional; conditions: Homo sapiens, read-out: Log LC50 (the source's name) (converted)
# NCI-H226 [18] = assay: In vitro total growth inhibition against non-small-cell lung cancer NCI-H226 cell lines was reported.; type: functional; conditions: Homo sapiens, read-out: Log TGI (converted)
# NCI-H522 [19] = assay: In vitro total growth inhibition against non-small-cell lung cancer NCI-522 cell lines was reported.; type: functional; conditions: Homo sapiens, read-out: Log TGI (converted)
# Tumor Cell line = assay: In vitro total growth inhibition for 50 cell lines was reported as log of molar concentration; type: functional, Homo sapiens
# OVCAR-3 [20] = assay: Log of molar concentration leading to 50% cell death against ovarian cancer OVCAR-3 cell line was reported; type: functional; conditions: Homo sapiens, read-out: Log LC50 (the source's name) (converted)
# KM12 [21] = assay: In vitro total growth inhibition against colon cancer KM12 cell lines was reported.; type: functional; conditions: Homo sapiens, read-out: Log TGI (converted)
# MDA-N = assay: In vitro total growth inhibition against breast cancer MDA-N cell lines was reported.; type: functional; conditions: Homo sapiens, read-out: Log TGI (converted)
# ACHN = assay: In vitro total growth inhibition against renal cancer ACHN cell lines was reported.; type: functional; conditions: Homo sapiens, read-out: Log TGI (converted)
# PC-3 [22] = assay: In vitro growth inhibition against prostate cancer PC-3 cell line was reported.; type: functional; conditions: Homo sapiens
# KM12 [23] = assay: In vitro growth inhibition against colon cancer KM12 cell line was reported.; type: functional; conditions: Homo sapiens
# OVCAR-8 [24] = assay: In vitro total growth inhibition against ovarian cancer OVCAR-8 cell lines was reported.; type: functional; conditions: Homo sapiens, read-out: Log TGI (converted)
# SR = assay: In vitro growth inhibition against leukemia SR cell line was reported.; type: functional; conditions: Homo sapiens
# T47D [25] = assay: In vitro total growth inhibition against breast cancer […] cell lines was reported.; type: functional; conditions: Homo sapiens, read-out: Log TGI (converted)
# CCRF-CEM [26] = assay: In vitro growth inhibition against leukemia CCRF-CEM cell line was reported.; type: functional; conditions: Homo sapiens
# TK-10 = assay: Log of molar concentration leading to 50% cell death against renal cancer TK-10 cell line was reported; type: functional; conditions: Homo sapiens, read-out: Log LC50 (the source's name) (converted)
# MDA-MB-231 [27] = assay: Log of molar concentration leading to 50% cell death against breast cancer MDA-MB-231/ATCC cell line was reported; type: functional; conditions: Homo sapiens, read-out: Log LC50 (the source's name) (converted)
# HCC 2998 [28] = assay: Log of molar concentration leading to 50% cell death against colon cancer HCC2998 cell line was reported; type: functional; conditions: Homo sapiens, read-out: Log LC50 (the source's name) (converted)
# BT-549 = assay: In vitro total growth inhibition against breast cancer BT 549 cell line was reported.; type: functional; conditions: Homo sapiens, read-out: Log TGI (converted)
# SF-295 = assay: Log of molar concentration leading to 50% cell death against CNS cancer SF-295 cell line was reported; type: functional; conditions: Homo sapiens, read-out: Log LC50 (the source's name) (converted)
# HL-60 [29] = assay: In vitro total growth inhibition against leukemia HL-60(TB) cell lines was reported.; type: functional; conditions: Homo sapiens, read-out: Log TGI (converted)
# MOLT-4 = assay: In vitro growth inhibition against leukemia MOLT-4 cell line was reported.; type: functional; conditions: Homo sapiens
# OVCAR-8 [30] = assay: In vitro growth inhibition against ovarian cancer OVCAR-8 cell line was reported.; type: functional; conditions: Homo sapiens
# PC-3 [31] = assay: In vitro total growth inhibition against prostate cancer PC-3 cell lines was reported.; type: functional; conditions: Homo sapiens, read-out: Log TGI (converted)
# NCI-H322M [32] = assay: In vitro total growth inhibition against non-small-cell lung cancer NCI-H322M cell lines was reported.; type: functional; conditions: Homo sapiens, read-out: Log TGI (converted)
# COLO 205 [33] = assay: Log of molar concentration leading to 50% cell death against colon cancer COLO 205 cell line was reported; type: functional; conditions: Homo sapiens, read-out: Log LC50 (the source's name) (converted)
# SF-539 = assay: Log of molar concentration leading to 50% cell death against CNS cancer SF-539 cell line was reported; type: functional; conditions: Homo sapiens, read-out: Log LC50 (the source's name) (converted)
# HT-29 = assay: In vitro growth inhibition against colon cancer HT-29 cell line was reported.; type: functional; conditions: Homo sapiens
# HCC 2998 [34] = assay: In vitro total growth inhibition against colon cancer HCC2998 cell lines was reported.; type: functional; conditions: Homo sapiens, read-out: Log TGI (converted)
# COLO 205 [35] = assay: In vitro total growth inhibition against colon cancer COLO 205 cell lines was reported.; type: functional; conditions: Homo sapiens, read-out: Log TGI (converted)
# K562 = assay: In vitro growth inhibition against leukemia K-562 cell line was reported.; type: functional; conditions: Homo sapiens
# SW-620 [36] = assay: In vitro growth inhibition against colon cancer SW620 cell line was reported.; type: functional; conditions: Homo sapiens
# UACC-62 [37] = assay: In vitro total growth inhibition against melanoma UACC-62 cell lines was reported.; type: functional; conditions: Homo sapiens, read-out: Log TGI (converted)
structure (smiles),measurement,setting,value
Cc1ccc2cccc(NC(=O)c3cc4c(cc3Cl)Sc3nccn3S4(=O)=O)c2n1,GI50,MDA-MB-231 [1],11.5 µM
same,TGI,786-0,38 µM
same,GI50,NCI-H322M [2],12 µM
same,TGI,SNB-75,30.9 µM
same,GI50,NCI-H226 [3],15.1 µM
same,GI50,DU-145 [4],5.5 µM
same,GI50,OVCAR-3 [5],2.95 µM
same,GI50,OVCAR-4,11 µM
same,CC50,M14,57.5 µM
same,GI50,U-251,3.47 µM
same,GI50,RPMI-8226 [6],1.7 µM
same,TGI,NCI-H46,7.76 µM
same,CC50,HL-60 [7],3.8 µM
same,TGI,SNB-19,33.9 µM
same,CC50,HOP-62,39.8 µM
same,GI50,T47D [8],2.4 µM
same,TGI,CCRF-CEM [9],17 µM
same,TGI,SW-620 [10],23.4 µM
same,TGI,IGROV-1,6.92 µM
same,TGI,RXF 393,25.1 µM
same,CC50,UACC-62 [11],67.6 µM
same,GI50,NCI-H522 [12],10.5 µM
same,GI50,SK-OV-3,26.9 µM
same,TGI,SK-MEL-28 [13],26.9 µM
same,GI50,OVCAR-5,16.2 µM
same,TGI,DU-145 [14],17.8 µM
same,GI50,A549,12.3 µM
same,TGI,MDA-MB-231 [15],24 µM
same,CC50,SK-MEL-28 [16],75.9 µM
same,CC50,RPMI-8226 [17],8.51 µM
same,TGI,NCI-H226 [18],57.5 µM
same,TGI,NCI-H522 [19],26.3 µM
same,Log GTI,Tumor Cell line,-4.01
same,CC50,OVCAR-3 [20],34.7 µM
same,TGI,KM12 [21],19.1 µM
same,TGI,MDA-N,91.2 µM
same,TGI,ACHN,33.9 µM
same,GI50,PC-3 [22],2.69 µM
same,GI50,KM12 [23],6.61 µM
same,TGI,OVCAR-8 [24],14.5 µM
same,GI50,SR,2.24 µM
same,TGI,T47D [25],6.31 µM
same,GI50,CCRF-CEM [26],2.51 µM
same,CC50,TK-10,45.7 µM
same,CC50,MDA-MB-231 [27],49 µM
same,CC50,HCC 2998 [28],14.5 µM
same,TGI,BT-549,60.3 µM
same,CC50,SF-295,53.7 µM
same,TGI,HL-60 [29],0.01 µM
same,GI50,MOLT-4,4.57 µM
same,GI50,OVCAR-8 [30],3.8 µM
same,TGI,PC-3 [31],10.5 µM
same,TGI,NCI-H322M [32],24.5 µM
same,CC50,COLO 205 [33],55 µM
same,CC50,SF-539,25.7 µM
same,GI50,HT-29,9.55 µM
same,TGI,HCC 2998 [34],4.68 µM
same,TGI,COLO 205 [35],30.9 µM
same,GI50,K562,4.07 µM
same,GI50,SW-620 [36],7.76 µM
same,TGI,UACC-62 [37],30.9 µM
